# From patent US20180244629A1, “Compounds And Compositions For The Treatment Of Cancer” (The Broad Institute, Inc., priority 2013, published 2018)
# Read-outs that look alike come from different tables or passages of the source.
# Tests used:
# [1] = system: A549 cells; assay: A549 Cytotoxicity Assay (Cell Titer Glo viability); assay type: cell-based
# Procedure: A549 Cytotoxicity Assay Protocol. Day 0: A549 cells (ATCC, A549 CCL-185) are grown to 95% confluence in RPMI, 10% FBS/Pen/Strep/L-Glutamine. Day 1: Plate cells (1000 per well) in 40 μl culturing media using Corning 384-well plates (3570), incubate in standard TC conditions (5% CO2, 95% humidity, 37° C.) for 24 h. Day 2: Dilute each concentration of a half-log serial dilution of compound (1 mM-100 nM) 1:200 in culturing media and add […] (50 μl total volume) of that dilution to designated wells (8 replicates per concentration). The final dilution will be 1000×([…]). Day 4: Remove plate from incubator to cool for 20 minutes to room temperature. Add 40 μl of a 25% Promega Cell Titer Glo solution (diluted 1:3 with room temperature PBS) with Thermo combi or multichannel and incubate for 10 min. Read on Perkin-Elmer EnVision with US LUM settings for 0.1 second per well.
# A549 Assay Protocol. Day 0: A549 cells (ATCC) are grown in a Triple flask (NUNC) to ˜95% confluence (TrypLE Phenol Red free) and resuspended for dispensing at 25,000 cells/mL of DMEM, 10% FBS/Pen/Strep/L-Glutamine (using the TAP Compact SelecT automated cell culture system). Day 1: Plate cells at 1000 per well in 40 uL media (DMEM/10% FBS/Pen/Strep/L-Glutamine) using Corning 8867BC 384 well plates; incubate in standard TC conditions (5% CO2; 95% humidity, 37° C.) for 24 hours (Compact SelecT). Day 2: Add 100 nL compound per well at dose into 40 uL assay volume using a pin tool (CyBi Well). Pin 100 nL cytotoxic compounds, mitoxantrone (CID 4212) to positive control wells to a final concentration of 10 μM (100 nL 4 mM DMSO stock). Incubate for […] at 37° C. in Liconic incubator, 95% humidity 5% CO2. Day 4: Remove plate from incubator, cool for 15 minutes to room temperature; add 20 μL 50% Promega CellTiterGlo (diluted 1:1 with PBS, pH 7.4) with Thermo Combi. Incubate at room temperature for 5 minutes. Read plates on Perkin-Elmer EnVision with standard luminescence settings for 0.1 sec per well.
# (§1) Compounds as shown were tested against various cells lines in vitro according to the methods described herein. Cells are plated in 384-well format in a total volume of 40 μl. Indicated compound concentrations were added 24 hrs after plating the cells. After 48 hrs cell viability was determined using Cell Titer Glo® Luminescent Cell Viability Assay.
# (§2) Known PDE3 inhibitors as shown below were tested against various cells lines in vitro according to the methods described herein. Cells are plated in 384-well format in a total volume of 40 μl. Indicated compound concentrations were added 24 hrs after plating the cells. After 48 hrs cell viability was determined using Cell Titer Glo® Luminescent Cell Viability Assay.
# [2] = system: HeLa cells; assay: HeLa Cytotoxicity Assay (Cell Titer Glo viability); assay type: cell-based
# Procedure: HeLa Cytotoxicity Assay Protocol: Day 0: HeLa cells (ATCC, HeLa CCL-2) are grown to 95% confluence in DMEM, 10% FBS/Pen/Strep/L-Glutamine. Day 1: Plate cells (1000 per well) in 40 μl culturing media using Corning 384-well plates (3570), incubate in standard TC conditions (5% CO2, 95% humidity, 37 degrees C.) for 24 hours. Day 2: Dilute each concentration of a half-log serial dilution of compound (1 mM-100 nM) 1:200 in culturing media and add 10 μl (50 μl total volume) of that dilution to designated wells (8 replicates per concentration). The final dilution will be 1000×(1 μM-100 pM). Day 4: Remove plate from incubator to cool for 20 minutes to room temperature. Add 40 μl of a 25% Promega Cell Titer Glo solution (diluted 1:3 with room temperature PBS) with Thermo combi or multichannel and incubate for 10 minutes. Read on Perkin-Elmer EnVision with US LUM settings for 0.1 second per well.
# as §1, §2
# [3] = Homo sapiens, A549, 48 hrs, Cell Titer Glo, read-out: EC50 A549
# [4] = Homo sapiens, HeLa, 48 h, Cell Titer Glo, read-out: EC50 HeLa
# [5] = Homo sapiens, A549, Mean ± SD (n = 3), read-out: Potency (EC50 nM) A549
# [6] = Homo sapiens, HeLa, Mean ± SD (n = 3), read-out: Potency (EC50 nM) HeLa
# [7] = Homo sapiens, A549, n = 2, read-out: Potency (EC50) A549
# [8] = Homo sapiens, HeLa, n = 2, read-out: Potency (EC50) HeLa
# [9] = 48 hrs, Cell Titer Glo, read-out: EC50 HeLa
Structure (SMILES),"EC50 [1, 5] [nM]","EC50 [2, 6] [nM]",other results
C[C@@H]1CC(=O)NN=C1c1ccc(N)c(Br)c1,,,"EC50 [1, 3]: > 10000 nM; EC50 [2, 4]: > 10000 nM"
CCN(CC)c1ccc(C2=NNC(=O)CC2C)cc1 (stereo not drawn),> 10000,8.8 ± 2.3,
CCN(CC)c1ccc(C2=NNC(=O)C[C@H]2C)cc1,> 10000,3.8 ± 0.8,
CCNc1ccc(C2=NNC(=O)C[C@H]2C)cc1,> 10000,71 ± 7,
CCN(CC)c1ccc(C2=NNC(=O)CC2C)cc1N (stereo not drawn),> 10000,240 ± 60,
CCN(CC)c1ccc(C2=NNC(=O)CC2C)cc1NC(C)=O (stereo not drawn),> 10000,> 1000,
CC1CC(=O)NN=C1c1ccc(N2CCOCC2)cc1 (stereo not drawn),> 10000,36 ± 9,
CC1CC(=O)NN=C1c1ccc(N2CCOCC2)c(F)c1 (stereo not drawn),> 10000,2.8 ± 0.7,
C[C@H]1CC(=O)NN=C1c1ccc(N2CCOCC2)c(F)c1,> 10000,> 1000,
CC(=O)N1CCN(c2ccc(C3=NNC(=O)C[C@H]3C)cc2F)CC1,> 10000,> 1000,
C[C@@H]1CC(=O)NN=C1c1ccc(N2CCN(C)CC2)cc1,> 10000,310 ± 120,
C[C@@H]1CC(=O)NN=C1c1ccc(N2CCCCC2)cc1,> 10000,3.9 ± 0.6,
C[C@@H]1CC(=O)NN=C1c1ccc(-n2cnnc2)cc1,> 10000,> 1000,
Cc1nc2ccc(C3=NNC(=O)C[C@H]3C)cc2[nH]1,> 10000,> 1000,
CC(=O)Nc1ccc(C2=NNC(=O)C[C@H]2C)cc1Cl,> 10000,30,
CC(=O)Nc1ccc(C2=NNC(=O)C[C@H]2C)cc1F,> 10000,> 1000,
C#Cc1cc(C2=NNC(=O)C[C@H]2C)ccc1NC(C)=O,> 10000,65 ± 10,
CC(=O)Nc1ccc(C2=NNC(=O)C[C@H]2C)cc1C(C)=O,> 10000,130 ± 10,
CC(=O)Nc1ccc(C2=NNC(=O)C[C@H]2C)cc1N,> 10000,> 1000,
C[C@@H]1CC(=O)NN=C1c1ccc(N2CCCOC2=O)cc1,> 10000,> 1000,
C[C@@H]1CC(=O)NN=C1c1ccc(N2CCCCS2(=O)=O)cc1,> 10000,330 ± 6,
C[C@@H]1CC(=O)NN=C1c1ccccc1,> 10000,430 ± 50,
CC1CC(=O)NN=C1c1ccc(F)cc1 (stereo not drawn),> 10000,410 ± 270,
C[C@@H]1CC(=O)NN=C1c1ccc(Cl)cc1,> 10000,33 ± 5,
CC1CC(=O)NN=C1c1ccc(F)c(F)c1 (stereo not drawn),> 10000,64 ± 3,
C[C@H]1CC(=O)NN=C1c1ccc(F)c(F)c1,> 10000,> 1000,
C[C@@H]1CC(=O)NN=C1c1ccc(I)cc1,> 10000,7.1 ± 0.8,

Structure (SMILES),"EC50 [1, 5] [nM]","EC50 [2, 6] [nM]",other results
C/C=C/c1ccc(C2=NNC(=O)C[C@H]2C)cc1,> 10000,8.8 ± 1.1,
CCCc1ccc(C2=NNC(=O)C[C@H]2C)cc1,> 10000,16 ± 1,
CC1CC(=O)NN=C1c1ccc(C2=CCCCC2)cc1 (stereo not drawn),> 10000,2.2 ± 0.4,
CC(=O)Nc1ccc(-c2n[nH]c(=O)cc2C)cc1,> 10000,> 1000,
CC1(C)C(=O)NN=C1c1ccc(N)cc1,> 10000,> 1000,
CCN(CC)c1ccc(C2=NNC(=O)C2(C)C)cc1,> 10000,> 1000,
CC1(C)C(=O)NN=C1c1ccc(N2CCOCC2)cc1,> 10000,> 1000,
CC1(C)C(=O)NN=C1c1ccc(Cl)cc1,> 10000,> 1000,
O=C1CC2CCc3cc(N4CCOCC4)ccc3C2=NN1 (stereo not drawn),> 10000,> 1000,
CCN(CC)c1ccc(-c2nc(C(C)C)no2)cc1[N+](=O)[O-],,,"EC50 [1, 7]: > 10000 nM; EC50 [2, 8]: > 10000 nM"
CC1CC(=O)N(c2ccccc2)N=C1c1ccc(Cl)cc1 (stereo not drawn),,,"EC50 [1, 7]: > 10000 nM; EC50 [2, 8]: > 10000 nM"
CC1CC(=O)NN=C1c1cccs1 (stereo not drawn),,,"EC50 [1, 7]: > 10000 nM; EC50 [2, 8]: > 10000 nM"
O=C1CC(c2ccccc2)=NN1,,,"EC50 [1, 7]: > 10000 nM; EC50 [2, 8]: > 10000 nM"
CCN(CC)c1ccc(C(=O)Nc2ccccc2)cc1[N+](=O)[O-],,,"EC50 [1, 7]: > 10000 nM; EC50 [2, 8]: > 10000 nM"
Cc1ccc(CCC(=O)N2CCN(c3ccc(C4=NNC(=O)CC4C)cc3)CC2)cc1 (stereo not drawn),,,"EC50 [1, 7]: > 10000 nM; EC50 [2, 8]: > 10000 nM"
CC1CC(=O)NN=C1c1ccc(N2CCN(C(=O)Cc3ccc(Cl)cc3Cl)CC2)cc1 (stereo not drawn),,,"EC50 [1, 7]: > 10000 nM; EC50 [2, 8]: > 10000 nM"
CC(=O)Nc1ccc(C2=NNC(=O)CC2C)cc1 (stereo not drawn) [drawing 139],,,"EC50 ([1]; 48 hrs, Cell Titer Glo, read-out: EC50 A549): > 10000 nM; EC50 [2, 9]: > 10000 nM"
CC(=O)Nc1ccc(C2=NNC(=O)C[C@H]2C)cc1[N+](=O)[O-] [drawing 143],,,"EC50 [1, 3]: > 10000 nM; EC50 [2, 4]: 0.00608 nM"
CC(=O)Nc1ccc(C2=NNC(=O)C[C@H]2C)cc1 [drawing 144],,,"EC50 [1, 3]: > 10000 nM; EC50 [2, 4]: > 10000 nM"
CC(=O)Nc1ccc(C2=NNC(=O)C[C@H]2C)cc1Br [drawing 146],,,"EC50 [1, 3]: > 10000 nM; EC50 [2, 4]: 42.1 nM"
CC(=O)Nc1ccc(C2=NNC(=O)CC2C)cc1 (stereo not drawn) [drawing 148],,,"EC50 [1, 3]: > 10000 nM; EC50 [2, 9]: > 1000 nM"
Cc1cc(=O)[nH]nc1-c1ccc(N)cc1 [drawing 149],,,"EC50 [1, 3]: > 10000 nM; EC50 [2, 4]: > 1000 nM"
CCN(CC)c1ccc(-c2n[nH]c(=O)cc2C)cc1 [drawing 150],,,"EC50 [1, 3]: > 10000 nM; EC50 [2, 4]: > 1000 nM"
CCN(CC)c1ccc(C2=NNC(=O)CC2C)cc1[N+](=O)[O-] (stereo not drawn) [drawing 154],> 10000,,
CCN(CC)c1ccc(C2=NNC(=O)C[C@H]2C)cc1[N+](=O)[O-] [drawing 155],> 10000,3.8 ± 1.1,
CCNc1ccc(C2=NNC(=O)C[C@H]2C)cc1[N+](=O)[O-] [drawing 156],> 10000,1.1 ± 0.5,
